Entries after “also recorded” stand apart in the source; their conditions may differ.
Columns and labels:
[1] = test system: allodynia; assay: Tactile allodynia (paw withdrawal threshold, % MPE) in L5/L6 spinal nerve ligated rats, Example 3; format: in vivo, Harlan Sprague-Dawley rats; conditions: for effect on allodynia, IV (in words) / Emax at 20 mg/kg: 20 mg/kg; for Emax at 20 mg/kg: Rattus norvegicus, 1 h, IV, 3-OH L in DMSO (p=0.006 vs DMSO, N=4), MEGX over 60 minutes (P=NS vs saline), read-out: maximum effect on PWT (% MPE), IV
Protocol: Male Harlan Sprague-Dawley rats were used (100-200 g). Rats were housed 2-3 to a cage with corn cob bedding and Purina rat chow and water ad libitum, in a standard facility with a 12 h/12 h day/night cycle. After surgical procedures involving chronic indwelling catheter insertion, animals were housed singly to prevent catheter damage.
Rats were allowed to recover 5-7 days before further testing or surgeries.
The catheters were 9 cm in intrathecal length and terminated near the lumbar enlargement. The rostral 3 cm of catheter was tunneled under the skin to externalize between the ears. Rats with neurologic deficits were discarded.
For intravascular access, external jugular catheters were fashioned from PE-50 tubing and inserted into an external jugular vein under halothane/oxygen anesthesia. Arterial catheters were also fashioned from PE-50 with a small bouton 1 cm from the intravascular end for suture securing; they were inserted into a carotid artery, taking care to spare the surrounding nerves. All catheters were flushed with heparinized saline (10 U/ml) and tunneled subcutaneously to emerge at the posterior base of the neck, and capped when not in use.
Monoethylglycinexylidide (MEGX) and 3-hydroxy monoethyl-glycinexylidide (3-OH MEGX) were dissolved in physiologic saline; 3-hydroxylidocaine (3-OH L) was dissolved in DMSO for intravenous administration.
(§1) Intravenous drugs were delivered to awake, unrestrained rats by slow infusion using a syringe pump (Harvard apparatus 22). Intrathecal drugs were delivered to awake, briefly restrained rats in a volume of 10 μl, followed by 10 μl of vehicle flush, using a calibrated tubing extension with a 30-gauge adapter fitting the implanted intrathecal catheter, attached to a geared Hamilton 100 μl glass syringe. IT drug delivery was monitored by observing the advancement of a small air bubble down the tubing.
Rats were placed in a plastic cage with an open wire mesh bottom and allowed to accommodate for approximately fifteen minutes. […] In brief, von Frey hairs were sequentially applied using an up-and-down paradigm to the left mid-plantar hindpaw with sufficient force to cause slight filament buckling. Positive responses were noted if the paw was sharply withdrawn. […] Otherwise, PWT were calculated by noting the stimulus level at which the first change in behavior occurred, collecting four additional responses to the continued up-and-down oscillation of stimulus presentation around the response threshold, and interpolating the 50% response threshold. For some comparisons, raw thresholds were converted to percent of maximum possible effect (% MPE), designating pre-treatment PWT (baselines) as 0% effect, and assigning a cutoff value of 100% effect to thresholds ≥15 g: therefore, % MPE values near 100 indicate normal mechanical thresholds (i.e., at or near 15 g), whereas values near 0 indicate allodynia. The following equation was used to compute % MPE:
% MPE=new threshold(g)-baseline threshold(g)×100/ 15 grams--baseline
Plasma drug levels and PWT were correlated using linear regression. Serially measured PWT and % MPE were compared using repeated measures ANOVA with post-hoc testing.

[2] = Observation of motor dysfunction and overt behavior / side effects; format: in vivo, Sprague-Dawley rats; conditions: IT; for motor dysfunction, IT (in words): Example 3, lidocaine and MEGX 500 μg, 3-OH L 58 μg (highest dose soluble in vehicle)
Source text: Animals were also observed for the appearance of general motor dysfunction,as evidenced by inability to ambulate symmetrically and for any other overt signs of unusual activity.

[3] = test system: sciatic nerve compound action potential; assay: Rat sciatic nerve compound action potential in vivo, direct application; set-up: species or system Harlan Sprague Dawley rats; conditions: for potency relative to lidocaine: compound action potential blockade; for blockade of sciatic nerve compound action potential (in words): direct application, lidocaine 2.5 mg, metabolites 5 mg, 10 min
Protocol: Male Harlan Sprague Dawley rats (300-350 g) were anesthetized with pentobarbital/diazepam. The sciatic nerves were sequentially and bilaterally exposed by sharp/blunt dissection from the popliteal region proximally. Electrodes were placed at the sciatic notch (stimulating), and the interossei (recording); a grounding electrode was applied remote from the field. Baseline compound action potential (CAP) (A alpha/beta) wave heights (mV) in response to stimulation 1× per minute were recorded for ten minutes to obtain a stable reference. One drug/vehicle solution was applied per nerve, at mid-nerve (mid-thigh) level, in a volume of 250 μl, and compound action potential wave height then was recorded 1× per minute for ten minutes after application.

[4] = test system: allodynia; conditions: cited from earlier work; for activity as metabolite with regard to allodynia suppression, earlier application: application Ser. No. 08/422,377
[5] = Plasma bupivacaine level and toxicity during IV infusion; format: in vivo, Harlan Sprague-Dawley rats
Protocol: as §1
For bupivacaine assays, samples were obtained by withdrawing and discarding approximately 0.3 cc of blood from arterial cannulae, and then withdrawing samples of approximately 0.5 cc volume. These samples were centrifuged and the plasma supernatant was frozen at -20° C. until analysis.
Bupivacaine was extracted from the thawed samples by solid-phase extraction chromatography )Chen Y et al., Therapeut Drug Monitor 14:317-321 (1992)). Sep-Pak C-18 (300 mg) cartridges were pre-conditioned with 4 ml of methanol and then 4 ml water. […]
Bupivacaine was quantitated by capillary GC with nitrogen-phosphorus detection )Bjork M et al., Journal of Chromatography 533:229-234 (1990)). […] Split injections (1.5:1) were performed with a Hewlett Packard 7673A automatic sampler, and the chromatograms were recorded and analyzed with H-P Chemstation (MSDOS) software. […]

[6] = test system: mechanical allodynia; assay: Mechanical allodynia in rat model of peripheral neuropathy (L5/L6 spinal nerve ligation), intrathecal, Example 2; format: in vivo, Sprague-Dawley rats; conditions: 0.6 μmol intrathecal, pH 6.58
Protocol: Experiments carried out in support of the present invention were performed in a rat model of peripheral neuropathy detailed in Example 2. Briefly, in the model used, rats are subjected to a surgical procedure, described by Kim and Chung (1992), designed to reproducibly injure peripheral nerves (spinal nerves L5 and L6). These rats develop a hyperesthetic state, which can be measured using one or more paradigms known in the art. Here, allodynia was measured by stimulation of neuropathic rat hindlimb using wire hairs having graded degrees of stiffness.
[…]. Test solutions at pH 6.58 were administered intrathecally as described above. Mechanical allodynia was measured by pressing nylon filaments of varying diameters against the paw. Data are expressed in terms of 50% response threshold, which is the median buckling weight required to evoke paw withdrawal; the lower the stimulus level, the more severe the allodynia.
Male Sprague-Dawley rats (200-350 gm) were prepared with chronic lumbar intrathecal catheters inserted under halothane anesthesia (Yaksh and Rudy). Animals were placed in a prone position and the left paraspinal muscles were separated from the spinous processes at the L4 -S2 levels, as described by Kim et al. The left L5 and L6 nerve roots were exposed and tightly ligated with 6-0 surgical silk suture. The rats were allowed to recover from anesthesia. Allodynia was typically observed to occur beginning 1-2 days post surgery and continuing for as long as 45 days. For testing, animals were placed in plastic cubicles with open wire mesh bottoms. Compound dissolved in preservative-free saline solution was administered in a volume of 10 μl through the intrathecal catheter, followed by 10 μl saline to flush the catheter line. Animals were tested for allodynia at various time points after drug treatment, as described below.
To assess the threshold of a non-noxious stimulus required to produce a left hind paw withdrawal (allodynia), Von Frey hairs (ranging from 0.4-15 grams), were systematically applied to the surgically treated hind paw. Failure to evoke a response was cause to test the next stiffer hair. Evocation of a brisk withdrawal response was cause to test the next lower stimulus intensity. This paradigm was repeated according to a statistical method (Dixon, 1976) to define the 50% response threshold.
Data in FIG. 6 are expressed in terms of 50% response threshold, which is the median buckling weight required to evoke paw withdrawal; the lower the stimulus level, the more severe the allodynia. Allodynia thresholds, measured 30 minutes after injection, were plotted against dosage. Each point represents a value for a single animal.

Compound	effect on allodynia, IV (in words) ([1]; IV infusion)	Emax at 20 mg/kg [1]	motor dysfunction, IT (in words) [2]	potency relative to lidocaine [3]	blockade of sciatic nerve compound action potential (in words) [3]	activity as metabolite with regard to allodynia suppression, earlier application [4]	other results
CCN(CC)CC(=O)Nc1c(C)ccc(O)c1C [3-OH L, 3-hydroxylidocaine]	both potent and effective at suppressing allodynia	76%	no motor dysfunction was seen	1/4	showed some activity	active metabolite with regard to allodynia suppression	MPE, IT 20 μg ([1]; IT, 20 (unit printed "l g")): 80.2±20%; MPE, IT 58 μg ([1]; IT, 58 (unit printed "l g")): 63±16%; local anesthetic (sodium channel blocking) activity ([3]; FIG. 12 legend): weaker local anesthetic than lidocaine
CCNCC(=O)Nc1c(C)cccc1C [MEGX, Monoethylglycinexylidide]	no effect	28%	transient motor dysfunction	approximately 1/3	showed some activity	not MEGX was an active metabolite with regard to allodynia suppression	suppression of allodynia after IT administration (summary) ([1]; IT): not MEGX, suppressed allodynia after IT administration; effect on allodynia / PWT, IT 500 μg (in words) ([1]; IT, 500 μg, after recovery of motor function): no effect on PWT; duration of motor dysfunction (hindquarter flaccidity / weakness) ([2]; 500 μg): 5 to 10 min; motor block / motor effects (summary) ([2]; 3-hydroxy MEGX at effective anti-allodynia dose, MEGX in excess): motor blockade
CCCCN1CCCCC1C(=O)Nc1c(C)cccc1C (stereo not drawn) [bupivacaine]							effect of intravenous bupivacaine on allodynia ([1]; IV infusion, 15 samples from 4 rats, P=0.11, linear regression): no effect on allodynia; also recorded: inactive against allodynia; toxicity (in words) [5]: evident toxicity as manifested by ataxia and lethargy; also recorded: Higher doses resulted in seizure; mean plasma level at seizure ([5]; N=4, unit not given): 7.4±0.7; effect of IV bupivacaine on allodynia, earlier literature ([4]; Biella G et al. 1992, centrally facilitated nociceptive processing): lack of effect of bupivacaine on centrally facilitated nociceptive processing
Cc1cccc(C)c1OCC(C)N (stereo not drawn) [mexiletine]							effect on mechanical allodynia (50% response threshold), 0.6 μmol [6]: did not block mechanical allodynia

Reference: US6166085A, “Method of producing analgesia” (priority 1996, dated 2000)
